Measured values published in patent US20250099467A1, “COMBINATION THERAPY FOR TREATING ABNORMAL CELL GROWTH” (Verastem, Inc., priority 2022, published 2025).

Assays:
Format in all cases: cell-based, human
[1] = system: NSCLC KRAS mutant cell lines; test: 3D proliferation assay with synergy analysis, NSCLC panel; settings: VS-6766 combined with ZN-C3 (WEE1); panel of 9 NSCLC KRAS mutant cell lines; 3D Matrigel, 7 days, CellTiter-Glo; FIG. 1, 2
Protocol: (§1) As examples, human cancer cell lines including non-small cell lung cancer (NSCLC), colorectal cancer (CRC), ovarian cancer and endometrial cancer were grown in 3D conditions. Briefly, 96-well plates were coated with 50 μL of Matrigel (100%) and incubated at 37° C. and 5% CO2 for 30 min in order for the Matrigel to solidify. Cells were seeded in 100 μL of 2% Matrigel containing medium. After an overnight incubation (17-22 hours), cells were treated with VS-6766 (RAF/MEK clamp)+/−DDR pathway inhibitor (e.g., DDR pathway inhibitor that targets WEE1, e.g., ZN-C3) for 7 days. VS-6766 was used at 1:5 dilutions starting at 5 μM and ZN-C3 was used at 1:3 dilutions starting at 5 μM. Cell viability was measured using the cell viability CellTiter-Glo assay.
(§2) Raw data and metadata files were processed with a custom R-script for single agent and combination activity. Bliss, Loewe, Highest Single Agent (HSA) and ZIP synergy analysis were performed to generate a composite synergy score. Summary graphics and reports were saved for visualization and further analysis.

[2] = system: CRC KRAS mutant cell lines; test: 3D proliferation assay with synergy analysis, CRC panel; settings: VS-6766 combined with ZN-C3 (WEE1); panel of 9 CRC KRAS mt cell lines; 3D Matrigel, 7 days, CellTiter-Glo; FIG. 1, 2
Protocol: as §1, §2

[3] = system: ovarian cancer cell lines; test: 3D proliferation assay with synergy analysis, ovarian panel; settings: VS-6766 combined with ZN-C3 (WEE1); panel of 12 ovarian cancer cell lines; 3D Matrigel, 7 days, CellTiter-Glo; FIG. 3, 4
Protocol: as §1, §2

[4] = system: endometrial cancer cell lines; test: 3D proliferation assay with synergy analysis, endometrial panel; settings: VS-6766 combined with ZN-C3 (WEE1); panel of 6 endometrial cancer cell lines; 3D Matrigel, 7 days, CellTiter-Glo; FIG. 3, 4
Protocol: as §1, §2

Measured: synergy with ZN-C3 in reducing cell viability (composite of Bliss, Loewe, HSA and ZIP)

CNS(=O)(=O)Nc1nccc(Cc2c(C)c3ccc(Oc4ncccn4)cc3oc2=O)c1F [VS-6766]
synergistic: all assays above
